Results: patent US20260345594A1, “Methods and Compositions for Controlling Jet Lag, Chronotype, or Circadian Rhythm” (University of Pittsburgh - Of the Commonwealth System of …, priority 2022, published 2026)

What was measured:
[1] = molecular target: T1, Melanopsin (Homo sapiens, UniProt Q9UHM6); experiment: Melanopsin (OPN4) Presto-Tango luciferase screen; assay type: cell-based; conditions: HTLA cells, LED light, agonist alone, read-out: EC50 of receptor activation by the ligand
T1 construct: V2 tail; expressed in transfected cells; host or cells: HTLA cells (HEK293 cell line with tTA-dependent luciferase reporter and β-arrestin2-TEV fusion)
T1 sequence (Q9UHM6 1-478): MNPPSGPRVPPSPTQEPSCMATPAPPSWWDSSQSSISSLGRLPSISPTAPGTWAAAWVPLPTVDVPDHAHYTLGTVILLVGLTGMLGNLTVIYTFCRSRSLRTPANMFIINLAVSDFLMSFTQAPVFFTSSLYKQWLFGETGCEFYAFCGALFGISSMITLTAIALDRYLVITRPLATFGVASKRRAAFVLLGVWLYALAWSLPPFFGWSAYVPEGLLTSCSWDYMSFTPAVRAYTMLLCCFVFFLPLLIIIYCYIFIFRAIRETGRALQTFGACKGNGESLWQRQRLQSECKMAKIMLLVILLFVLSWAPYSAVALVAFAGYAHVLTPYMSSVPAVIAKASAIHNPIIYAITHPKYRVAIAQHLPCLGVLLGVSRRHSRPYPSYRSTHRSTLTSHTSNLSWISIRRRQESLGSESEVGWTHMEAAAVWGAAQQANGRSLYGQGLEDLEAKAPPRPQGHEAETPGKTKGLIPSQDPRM
Text: (§1) Presto-Tango Assay: Empty Tango plasmid was generated from Addgene plasmid #66225. Melanopsin was amplified by pcr from pAAV-GFAP104-melanopsin-mCherry (Addgene plasmid #122630) and AVPR1a from hV1aR-GFP (Addgene plasmid #67846) and cloned to generate OPN4- and AVPR1a-Tango plasmid. HTLA cells (a HEK293 cell line stably expressing a tTA-dependent luciferase reporter and a β-arrestin2-TEV fusion gene—a gift from Bryan Roth) was transfected with OPN4-Tango or AVPR1A-Tango plasmids. The HTLA Cells are grown in DMEM supplemented with 10% FBS, 100 U/ml penicillin and 100 μg/ml streptomycin, 2 μg/ml puromycin and 100 μg/ml hygromycin B (HTLA medium) in a humidified atmosphere at 37 °C in 5% CO2 (HTLA Medium).
(§2) Luciferase activity was measured using Bright-Glo Luciferase (Promega #E2160) assay.
(§3) Day 1: HTLA cells were plated in at 9 to 10×10^6 cells per 100 mm cell culture dish in HTLA Medium.
(§4) Day 2: The cells were transfected using the Polyethylenimine method. […]
(§5) Day 5: The medium containing drug solutions were removed from the wells (by aspiration or shaking), and 50 μL per well of Bright-Glo solution (Promega) diluted 10-fold in filter-sterilized assay buffer, which consisted of 20 mM HEPES and 1×HBSS at pH 7.4 and 1 mM Glucose were added to each well. After incubation for 15 to 20 minutes at room temperature, luminescence was counted in a BioTek-Flx-800 luminescence counter.

[2] = molecular target: T2, AVPR1a (human vasopressin 1a receptor, V1AR) (Homo sapiens, UniProt P37288); experiment: AVPR1a Presto-Tango luciferase screen; assay type: cell-based
T2 construct: V2 tail; expressed in transfected cells; host or cells: HTLA cells (HEK293 cell line with tTA-dependent luciferase reporter and β-arrestin2-TEV fusion)
Text: as §1, §2, §3, §4, §5

T2 sequence (P37288 whole entry, the tested form may be a part): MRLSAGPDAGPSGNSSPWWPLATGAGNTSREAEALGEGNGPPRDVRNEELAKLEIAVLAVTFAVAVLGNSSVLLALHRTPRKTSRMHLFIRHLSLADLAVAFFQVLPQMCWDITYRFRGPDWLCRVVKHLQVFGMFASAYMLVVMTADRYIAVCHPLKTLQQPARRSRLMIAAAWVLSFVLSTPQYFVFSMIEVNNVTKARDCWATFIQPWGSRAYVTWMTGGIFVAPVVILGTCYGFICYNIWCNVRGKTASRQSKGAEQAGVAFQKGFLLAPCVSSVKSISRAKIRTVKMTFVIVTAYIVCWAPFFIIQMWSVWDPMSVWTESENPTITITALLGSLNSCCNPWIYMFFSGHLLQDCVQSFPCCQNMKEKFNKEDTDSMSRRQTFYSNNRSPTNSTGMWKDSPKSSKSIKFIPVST

SMILES | EC50 [1] | IC50 ([2]; 5 nM Arginine Vasopressin, 16 hrs illumination (FIG. 9), inhibitor, read-out: EC50 (allosteric inhibition of AVPR1a, ratio of luciferase activity over positive control)) | V1AR inhibition validated by in vitro experiments ([2]; in words)
CC1=C(/C=C/C(C)=C\C=C\C(C)=C\C=O)C(C)(C)CCC1 [9-cis-Retinol] | ~250 nM | – | –
Cc1ccc2[nH]cc(CCNC(=O)Cn3c(=O)c(=O)n(Cc4ccccc4)c4ccccc43)c2c1 [MolPort-007-880-661] | – | 360 nM | effective V1AR inhibitors
